Test results as given in patent US6919327B2, “Texaphyrin coordination compounds and uses thereof” (Pharmacyclics, Inc., priority 2000, dated 2005).

Test system: HepG2 cells
Experiment: GdTex / LuTex cell association study in HepG2 cells
Format: cell-based
Conditions: 50 μM, 4 hours
Protocol: The absorption of GdTex and LuTex, using different sources of the respective texaphyrin, in HepG2 cells was determined, by comparing absorption for GdTex and LuTex in the cell line in medium alone, in medium containing ascorbic acid, and using GdTex and LuTex that had been premixed with ascorbate for a period of time before exposure to the cell line.
The HepG2 tumor cell line, a hepatocellular carcinoma, was obtained from the American Type Culture Collection (ATCC), Manassas, Va. (Catalog # HB-8065). The HepG2 cells were maintained in Eagle's Minimal Essential medium with Earl's BSS and 2 mM L-glutamine (EMEM) that is modified by ATCC to contain 1.0 mM sodium pyruvate, 0.1 mM nonessential amino acids, and 1.5 g/L sodium bicarbonate (ATCC, Cat. # 30-2003) and supplemented with 10% fetal bovine serum (FBS) FBS (Hyclone, Logan, Utah, Lot # AHF8559) and 100U penicillin/100 ug/ml streptomycin (Sigma, St. Louis, Mo.). Cells are fed 1 to 2 times weekly and passed at 3,000,000 cells per 75 cm tissue culture flask (Costar). Cells are passed using 0.25% trypsin, 0.02% EDTA solution (50/50 PBS/trypsin (Sigma)). Cells used were at the 96th passage at the time of use.
HepG2 Cells were plated at a density of 500,000 cells per dish in 100 mm tissue culture dishes containing 10 mL of RPMI media (Gibco, Rockville, Md.) supplemented with 10% fetal bovine serum (Lot# AJC9908), and 100 U/mL penicillin/100 ug/mL streptomycin (Lot # 50K2308, Sigma, St. Louis, Mo.). Cells were plated out 1 to 2 days prior to treating with motexafin gadolinium.
The day prior to treating the dishes with GdTex (9-19-00), an “aged” solution was prepared containing 50 μM GdTex, 100 μM ascorbate, and Catalase (at a concentration 1:1000 of the stock solution concentration provided by the vendor). This solution was incubated at 37° C. 5% CO2 for approximately 24 hours prior to addition to the appropriate test dishes.
On the day of treatment, test solutions were prepared as shown in the Table I below in pre-incubated medium. […]

[1] = freshly prepared solutions made in the presence of ascorbate (100 μM)

Structure (SMILES) | association with HepG2 cells [1] | association with HepG2 cells (in the absence of ascorbate)
CC(=O)[O-].CC(=O)[O-].CCc1c(CC)c2cc3nc(cnc4cc(OCCOCCOCCOC)c(OCCOCCOCCOC)cc4ncc4nc(cc1[n-]2)C(CCCO)=C4C)C(C)=C3CCCO.O.[Gd+3] [GdTex, motexafin gadolinium] | comparable levels of association | smaller than corresponding LuTex cell association
CC(=O)[O-].CC(=O)[O-].CCc1c(CC)c2cc3nc(cnc4cc(OCCOCCOCCOC)c(OCCOCCOCCOC)cc4ncc4nc(cc1[n-]2)C(CCCO)=C4C)C(C)=C3CCCO.O.[Lu+3] [LuTex, motexafin lutetium] | comparable levels of association | 
